# Source: EP2914280B1, “SOMATOSTATIN-DOPAMINE CHIMERIC ANALOGS” (IPSEN PHARMA S.A.S., priority 2012, dated 2014)
# Like-named read-outs stand apart in the source and are kept apart here. Numbered stars: 1 amine (or outer) side, 2 acyl side, 3 side chain; on linkers, the order of the positions; unused ones are H or OH. Bridge positions count the residues as written; N and C are the ends. Square brackets hold non-standard residues; d marks the D form. Peptide text beside a SMILES is read from it. * marks the point of attachment. X1 = CN1C[C@H](CSCCN(CCSC[C@@H]2C[C@@H]3c4cccc5[nH]cc(c45)C[C@H]3N(C)C2)[C@H](CCCCN[*:2])C(=O)[*:1])C[C@@H]2c3cccc4[nH]cc(c34)C[C@H]21; X2 = CN1C[C@H](CSCC(=O)*)C[C@@H]2c3cccc4[nH]cc(c34)C[C@H]21; Phe(4-F) = N[C@@H](Cc1ccc(F)cc1)C(=O)O; 4Pal = N[C@@H](Cc1ccncc1)C(=O)O
# Columns and labels:
# [1] = biological target: T1, hSSTR1 (Homo sapiens, UniProt P30872); experiment: Somatostatin receptor radioligand binding assay (hSSTR1)
# T1 construct: expressed in transfected cells; host or cells: CHO-K1 (ATCC), pcDNA3.1, G418-selected clonal line; membranes
# Experimental: (§1) The affinities of a test compound for the human somatostatin receptors were determined by radioligand binding assays in CHO-K1 cells stably transfected with each of the human somatostatin receptor subtypes, hSSTR1-5. […] Clonal cell lines stably expressing each of the somatostatin receptors were obtained by transfection into CHO-K1 cells (ATCC) and subsequently selected with culture media containing 0.8 mg/mL of G418 (Life Technologies).
# (§2) Membranes for in vitro receptor binding assays were obtained by the following procedures. […] The supernatant containing the plasma membranes was centrifuged at 100,000 x g for 30 minutes and the pellet was resuspended in buffer containing 20 mM glycine-glycine, 1 mM MgCl2, 250 mM sucrose, pH 7.2, for storage at -80°C.
# (§3) For the SSTR1, 2 and 5 assays, membranes and various concentrations of test compounds were incubated in 96-well plates for 60 minutes at 25°C with 0.05 nM [^125I-Tyr^11]-SRIF-14 (for hSSTR1; PerkinElmer Life Science), 0.05 nM [^125I-Tyr]-seglitide (for hSSTR2; PerkinElmer Life Science) or 0.05 nM [^125I-Tyr]-[DPhe-cyclo(Cys-Tyr-DTrp-Lys-Val-Cys)-Thr-NH2] (for hSSTR5; PerkinElmer Life Science) in 50 mM HEPES, 0.2% BSA, 0.1 mM MgCl2, pH 7.5.
# (§4) The incubations were terminated by rapid filtration through GF/C glass microfiber filter plates (pre-wet with 0.3% polyethyleneimine and 0.1 % BSA) using a 96-well cell harvester (Brandel). Plates were washed six times with 1 mL/well aliquots of ice-cold buffer containing 50 mM Tris buffer, pH 7.7. Specific binding was defined as the total radioligand bound minus the bound in the presence of 1000 nM SRIF-14.
# [2] = biological target: T2, hSSTR2 (Homo sapiens, UniProt P30874); experiment: Somatostatin receptor radioligand binding assay (hSSTR2);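 note: radioligand displacement on membranes of CHO-K1 cells stably transfected with human SSTR2, specific binding taken as total minus binding left with 1000 nM SRIF-14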
# T2 construct: host or cells: 'Cells expressing hSSTR2'
# Experimental: as §1, §2, §3, §4
# [3] = biological target: T3, hSSTR5 (Homo sapiens, UniProt P35346); experiment: Somatostatin receptor radioligand binding assay (hSSTR5); conditions: CHO-K1 cell membranes; 0.05 nM [125I-Tyr]-[DPhe-cyclo(Cys-Tyr-DTrp-Lys-Val-Cys)-Thr-NH2]; 60 minutes at 25°C; read-out: hSSTR5 Ki (nM) ± SEM
# T3 construct: expressed in transfected cells; host or cells: CHO-K1 (ATCC), pcDNA3.1, G418-selected clonal line; membranes
# Experimental: as §1, §2, §3, §4
# [4] = biological target: T2, hSSTR2; experiment: Intracellular calcium mobilization assay (FLIPR Calcium 4), hSSTR2; assay type: cell-based;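 note: agonist activity measured in cells expressing hSSTR2, seeded in 384-well plates, loaded with Calcium 4 dye, read-out as rise in intracellular calcium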
# Experimental: (§5) The ability of select compounds according to the present invention to activate hSSTR2 and hDRD2 was determined by the intracellular calcium mobilization assay using FLIPR Calcium 4 assay kit (Molecular Devices).
# (§6) Cells expressing hSSTR2 or hDRD2 were plated in 384-well microplates in tissue culture media and incubated for 16-24 hours at 37°C in a humidified atmosphere with 5% CO2. Medium was replaced by loading buffer containing Hank's buffered saline, 20 mM HEPES, 2.5 mM probenecid and Calcium 4 dye, and the plates were incubated at 37°C for 60 minutes.
# [5] = biological target: T4, hDRD2 (Homo sapiens, UniProt P14416); experiment: cell-based; parameters: host or cells: 'Cells expressing hDRD2'; conditions: for Emax: read-out: hDRD2 %Emax ± SEM
# Experimental: as §5, §6
# [6] = biological target: T4, hDRD2; experiment: biochemical; assay type: binding; parameters: expressed in transfected cells; host or cells: CHO-K1, pcDNA3.1/GS, zeocin-selected clonal line; membranes
# [7] = CHO-K1 cell membranes, 0.05 nM [125I-Tyr11]-SRIF-14, 60 minutes at 25°C, read-out: hSSTR1 Ki (nM) ± SEM
# [8] = CHO-K1 cell membranes, 0.05 nM [125I-Tyr]-seglitide, 60 minutes at 25°C, read-out: hSSTR2 Ki (nM) ± SEM
# [9] = CHO-K1 cell membranes, […] [3H]-spiperone, 60 minutes at 25°C, read-out: hDRD2 Ki (nM) ± SEM
# 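Throughout, for Emax: agonist activity at human DRD2 in DRD2-expressing cells, read as intracellular calcium mobilization with a FLIPR Calcium 4 fluorescent dye.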
# T1 sequence (P30872 whole entry): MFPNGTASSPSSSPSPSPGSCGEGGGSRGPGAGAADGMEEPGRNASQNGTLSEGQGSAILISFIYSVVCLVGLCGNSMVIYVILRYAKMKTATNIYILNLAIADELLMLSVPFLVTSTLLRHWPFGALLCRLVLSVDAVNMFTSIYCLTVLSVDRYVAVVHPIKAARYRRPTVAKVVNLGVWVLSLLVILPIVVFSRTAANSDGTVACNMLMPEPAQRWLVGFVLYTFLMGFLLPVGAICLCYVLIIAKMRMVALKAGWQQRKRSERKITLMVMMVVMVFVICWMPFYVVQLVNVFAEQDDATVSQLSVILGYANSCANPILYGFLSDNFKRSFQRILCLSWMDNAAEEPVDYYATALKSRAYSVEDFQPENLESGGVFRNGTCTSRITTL
# T2 sequence (P30874 whole entry): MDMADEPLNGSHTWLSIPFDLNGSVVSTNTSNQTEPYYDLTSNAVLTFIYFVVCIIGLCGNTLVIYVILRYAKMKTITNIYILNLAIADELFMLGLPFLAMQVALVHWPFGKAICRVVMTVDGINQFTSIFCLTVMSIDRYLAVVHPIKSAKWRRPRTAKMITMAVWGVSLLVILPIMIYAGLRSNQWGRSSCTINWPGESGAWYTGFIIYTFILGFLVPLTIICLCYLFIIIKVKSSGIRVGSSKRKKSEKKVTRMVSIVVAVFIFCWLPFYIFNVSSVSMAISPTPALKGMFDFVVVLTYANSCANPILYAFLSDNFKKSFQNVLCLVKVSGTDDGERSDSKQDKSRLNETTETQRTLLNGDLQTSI
# T4 sequence (P14416 whole entry): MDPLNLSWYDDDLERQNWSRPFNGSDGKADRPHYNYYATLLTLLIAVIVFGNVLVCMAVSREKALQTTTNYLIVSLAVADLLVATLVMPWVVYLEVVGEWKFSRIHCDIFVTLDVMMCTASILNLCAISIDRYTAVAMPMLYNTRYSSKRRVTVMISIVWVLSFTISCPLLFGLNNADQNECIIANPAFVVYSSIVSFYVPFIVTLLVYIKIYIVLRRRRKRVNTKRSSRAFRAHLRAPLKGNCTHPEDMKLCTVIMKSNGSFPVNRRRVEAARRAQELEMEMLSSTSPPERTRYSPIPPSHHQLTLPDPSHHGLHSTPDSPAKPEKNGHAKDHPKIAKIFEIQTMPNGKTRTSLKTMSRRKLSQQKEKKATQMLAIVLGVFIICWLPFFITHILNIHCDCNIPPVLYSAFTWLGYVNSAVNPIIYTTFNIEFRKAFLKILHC
# T3 sequence (P35346 whole entry): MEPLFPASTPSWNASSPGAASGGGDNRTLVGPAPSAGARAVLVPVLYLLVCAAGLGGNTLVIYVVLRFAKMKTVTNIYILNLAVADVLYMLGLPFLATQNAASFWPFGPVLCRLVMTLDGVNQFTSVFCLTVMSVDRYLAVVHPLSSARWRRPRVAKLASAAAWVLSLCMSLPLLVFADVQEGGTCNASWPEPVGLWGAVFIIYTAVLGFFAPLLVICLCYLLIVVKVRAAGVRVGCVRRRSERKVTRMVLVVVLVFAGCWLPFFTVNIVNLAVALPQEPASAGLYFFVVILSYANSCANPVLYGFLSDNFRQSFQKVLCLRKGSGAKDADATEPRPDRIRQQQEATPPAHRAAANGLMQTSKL
Structure (SMILES),Ki [1] [nM],Ki [2] [nM],Ki [3] [nM],EC50 [4] [nM],EC50 [5] [nM],Emax [5] [%],Ki [6] [nM],"Ki [1, 7] [nM]","Ki [2, 8] [nM]","Ki [6, 9] [nM]","EC50 ([4]; Table IV, cells expressing hSSTR2, read-out: hSSTR2 EC50 (nM) ± SEM) [nM]",improvement in %Emax over Reference Compound C ([4]; receptor not named)
"C[C@@H](O)[C@@H]1NC(=O)[C@H](CCCCN)NC(=O)[C@@H](Cc2c[nH]c3ccccc23)NC(=O)[C@H](Cc2ccccc2)NC(=O)[C@H](Cc2ccccc2)NC(=O)[C@H](CCCNC(=N)N)NC(=O)[C@H](NCCS(=O)(=O)C[C@@H]2C[C@@H]3c4cccc5[nH]cc(c45)C[C@H]3N(C)C2)CCCCNC(=O)[C@H](Cc2ccc(F)cc2)NC1=O [Compound 10, Dop1(SO2)-psi(CH2NH)-cyclo(DLys-Arg-Phe-Phe-DTrp-Lys-Thr-4FPhe)]",6.6,0.17 ± 0.05,0.16 ± 0.1,19.4 ± 2,24 ± 4.5,92.8 ± 4,56.4 ± 11.2,,,,,
"C[C@@H](O)[C@@H]1NC(=O)[C@H](CCCCN)NC(=O)[C@@H](Cc2c[nH]c3ccccc23)NC(=O)[C@H](Cc2ccncc2)NC(=O)[C@H](Cc2ccccc2)NC(=O)[C@H](CCCNC(=N)N)NC(=O)[C@H](NCC[S@+]([O-])C[C@@H]2C[C@@H]3c4cccc5[nH]cc(c45)C[C@H]3N(C)C2)CCCCNC(=O)[C@H](Cc2ccc(O)cc2)NC1=O [Compound 11, Dop1[(R)SO]-psi(CH2NH)-cyclo(DLys-Arg-Phe-4Pa1-DTrp-Lys-Thr-Tyr)]",160 ± 22.5,0.05,0.09,2.4 ± 0.4,6.4 ± 0.9,106 ± 3.5,79.7 ± 21.4,,,,,
"C[C@@H](O)[C@@H]1NC(=O)[C@H](CCCCN)NC(=O)[C@@H](Cc2c[nH]c3ccccc23)NC(=O)[C@H](Cc2ccncc2)NC(=O)[C@H](Cc2ccccc2)NC(=O)[C@H](CCCNC(=N)N)NC(=O)[C@H](NCC[S@@+]([O-])C[C@@H]2C[C@@H]3c4cccc5[nH]cc(c45)C[C@H]3N(C)C2)CCCCNC(=O)[C@H](Cc2ccc(O)cc2)NC1=O [Compound 12, Dop1[(S)SO]-psi(CH2NH)-cyclo(DLys-Arg-Phe-4Pal-DTrp-Lys-Thr-Tyr)]",98.9 ± 2.3,0.06 ± 0.01,0.74 ± 0.4,4.1 ± 1.4,76.3 ± 28.2,99.8 ± 6,255 ± 224,,,,,
"C[C@@H](O)[C@@H]1NC(=O)[C@H](CCCCN)NC(=O)[C@@H](Cc2c[nH]c3ccccc23)NC(=O)[C@H](Cc2ccncc2)NC(=O)[C@H](Cc2ccccc2)NC(=O)[C@H](CCCNC(=N)N)NC(=O)[C@H](NCCS(=O)(=O)C[C@@H]2C[C@@H]3c4cccc5[nH]cc(c45)C[C@H]3N(C)C2)CCCCNC(=O)[C@H](Cc2ccc(O)cc2)NC1=O [Compound 20, Dop1(SO2)-psi(CH2NH)-cyclo(DLys-Arg-Phe-4Pal-DTrp-Lys-Thr-Tyr)]",,,0.33,,,101.5 ± 0.6,,689,0.02 ± 0.01,115 ± 41.3,,
"C[C@@H](O)[C@@H]1NC(=O)[C@H](CCCCN)NC(=O)[C@@H](Cc2c[nH]c3ccccc23)NC(=O)[C@H](Cc2ccccc2)NC(=O)[C@H](Cc2ccccc2)NC(=O)[C@H](CCCNC(=N)N)NC(=O)[C@H](NCCSC[C@@H]2C[C@@H]3c4cccc5[nH]cc(c45)C[C@H]3N(C)C2)CCCCNC(=O)[C@H](Cc2ccccc2)NC1=O [Compound 26, Dop1-psi(CH2NH)-cyclo(DLys-Arg-Phe-Phe-DTrp-Lys-Thr-Phe)]",59,2.23 ± 0.97,,9.8 ± 1.4,34.1 ± 6.8,93.7 ± 7.2,309 ± 56.6,,,,,
"CC(=O)N(CCCN(C(C)=O)[C@@H]1CCCCNC(=O)[C@H](Cc2ccc(F)cc2)NC(=O)[C@H]([C@@H](C)O)NC(=O)[C@H](CCCCN)NC(=O)[C@@H](Cc2c[nH]c3ccccc23)NC(=O)[C@H](Cc2ccccc2)NC(=O)[C@H](Cc2ccccc2)NC(=O)[C@H](CCCNC(=N)N)NC1=O)C[C@@H]1C[C@@H]2c3cccc4[nH]cc(c34)C[C@H]2N(C)C1 [Compound 28, 3-[N-acetyl-N-(D-6-methyl-8β-ergolinylmethyl)]-aminopropionyl-psi(CH2NAc)-cyclo(DLys-Arg-Phe-Phe-DTrp-Lys-Thr-4FPhe)]",,0.75 ± 0.27,,11.8 ± 7.6,265 ± 104,56 ± 9.1,39.9 ± 10.4,,,,,
"CC(=O)N(CCCN[C@@H]1CCCCNC(=O)[C@H](Cc2ccc(F)cc2)NC(=O)[C@H]([C@@H](C)O)NC(=O)[C@H](CCCCN)NC(=O)[C@@H](Cc2c[nH]c3ccccc23)NC(=O)[C@H](Cc2ccccc2)NC(=O)[C@H](Cc2ccccc2)NC(=O)[C@H](CCCNC(=N)N)NC1=O)C[C@@H]1C[C@@H]2c3cccc4[nH]cc(c34)C[C@H]2N(C)C1 [Compound 29A, 3-[N-acetyl-(D-6-methyl-8β-ergolinylmethyl)]-aminopropionyl-psi(CH2NH)-cyclo(DLys-Arg-Phe-Phe-DTrp-Lys-Thr-4FPhe)]",,0.13,,8.2 ± 0.7,62.7 ± 14.8,82.8 ± 6.7,46.8 ± 7.4,,,,,
"C[C@@H](O)[C@@H]1NC(=O)[C@H](CCCCN)NC(=O)[C@@H](Cc2c[nH]c3ccccc23)NC(=O)[C@H](Cc2ccccc2)NC(=O)[C@H](Cc2ccccc2)NC(=O)[C@H](CCCNC(=N)N)NC(=O)[C@@H](NC[C@H](Cc2ccc(O)cc2)NC(=O)CSC[C@@H]2C[C@@H]3c4cccc5[nH]cc(c45)C[C@H]3N(C)C2)CCCCNC(=O)[C@H](Cc2ccccc2)NC1=O [Compound 31, Dop1-Tyr-psi(CH2NH)-cyclo(Lys-Arg-Phe-Phe-DTrp-Lys-Thr-Phe)]",,0.51 ± 0.1,,13.3 ± 0.9,37.7 ± 4.6,94.8 ± 9.7,38.6 ± 28.6,,,,,
"C[C@@H](O)[C@@H]1NC(=O)[C@H](CCCCN)NC(=O)[C@@H](Cc2c[nH]c3ccccc23)NC(=O)[C@H](Cc2ccccc2)NC(=O)[C@H](Cc2ccccc2)NC(=O)[C@H](CCCNC(=N)N)NC(=O)[C@H](NC(=O)CSC[C@@H]2C[C@@H]3c4cccc5[nH]cc(c45)C[C@H]3N(C)C2)CCCCNC(=O)[C@H](Cc2ccc(F)cc2)NC1=O [Compound 34, Dop1-cyclo(DLys-Arg-Phe-Phe-DTrp-Lys-Thr-4FPhe)] (X2-[dK]RFF[dW]KT[Phe(4-F)]; lactam 1-C)",,4.55 ± 1.15,,14.6 ± 5.7,72.7,77.9,299,,,,,
"C[C@@H](O)[C@@H]1NC(=O)[C@H](CCCCN)NC(=O)[C@@H](Cc2c[nH]c3ccccc23)NC(=O)[C@H](Cc2ccncc2)NC(=O)[C@H](Cc2ccccc2)NC(=O)[C@H](CCCNC(=N)N)NC(=O)[C@H](N(CCSC[C@@H]2C[C@@H]3c4cccc5[nH]cc(c45)C[C@H]3N(C)C2)CCSC[C@@H]2C[C@@H]3c4cccc5[nH]cc(c45)C[C@H]3N(C)C2)CCCCNC(=O)[C@H](Cc2ccc(O)cc2)NC1=O [Compound 35, bis[Dop1-psi(CH2N)]-cyclo(DLys-Arg-Phe-4Pal-DTrp-Lys-Thr-Tyr)] (RF[4Pal][dW]KTY; linker N-C via X1)",,,,,97.4 ± 21.1,103 ± 1.4,345 ± 40.4,99.7,0.17 ± 0.06,,19.4 ± 6.2,
"C[C@@H](O)[C@@H]1NC(=O)[C@H](CCCCN)NC(=O)[C@@H](Cc2c[nH]c3ccccc23)NC(=O)[C@H](Cc2ccccc2)NC(=O)[C@H](Cc2ccccc2)NC(=O)[C@H](CCCNC(=N)N)NC(=O)[C@H](N(CCSC[C@@H]2C[C@@H]3c4cccc5[nH]cc(c45)C[C@H]3N(C)C2)CCSC[C@@H]2C[C@@H]3c4cccc5[nH]cc(c45)C[C@H]3N(C)C2)CCCCNC(=O)[C@H](Cc2ccc(F)cc2)NC1=O [Compound 39, bis[Dop1-psi(CH2N)]-cyclo(DLys-Arg-Phe-Phe-DTrp-Lys-Thr-4FPhe)] (RFF[dW]KT[Phe(4-F)]; linker N-C via X1)",,3.72 ± 2.01,,25.9 ± 6.9,114 ± 24.4,95.7 ± 2.4,330 ± 59.5,,,,,
"C[C@@H](O)[C@@H]1NC(=O)[C@H](CCCCN)NC(=O)[C@@H](Cc2c[nH]c3ccccc23)NC(=O)[C@H](Cc2ccccc2)NC(=O)[C@H](Cc2ccccc2)NC(=O)[C@H](CCCNC(=N)N)NC(=O)[C@H](NC[C@H](CCCCNC(=O)CSC[C@@H]2C[C@@H]3c4cccc5[nH]cc(c45)C[C@H]3N(C)C2)NC(=O)CSC[C@@H]2C[C@@H]3c4cccc5[nH]cc(c45)C[C@H]3N(C)C2)CCCCNC(=O)[C@H](Cc2ccc(F)cc2)NC1=O [Compound 47, Dop1-Lys(Dop1)-psi(CH2NH)-cyclo(DLys-Arg-Phe-Phe-DTrp-Lys-Thr-4FPhe)]",,,,,,92.5 ± 0.8,,29,0.58 ± 0.27,84.2 ± 7.5,,statistically significant improvement in %Emax
"C[C@@H](O)[C@@H]1NC(=O)[C@H](CCCCN)NC(=O)[C@@H](Cc2c[nH]c3ccccc23)NC(=O)[C@H](Cc2ccccc2)NC(=O)[C@H](Cc2ccccc2)NC(=O)[C@H](CCCNC(=N)N)NC(=O)[C@H](NCCCS(=O)(=O)C[C@@H]2C[C@@H]3c4cccc5[nH]cc(c45)C[C@H]3N(C)C2)CCCCNC(=O)[C@H](Cc2ccc(F)cc2)NC1=O [Compound 48, (D-6-methyl-8β-ergolinylmethyl)-sulfonylpropyl-cyclo(DLys-Arg-Phe-Phe-DTrp-Lys-Thr-4FPhe)]",,0.25 ± 0.1,,23.6 ± 7.9,78.3 ± 15.2,76.5 ± 2.8,19.4 ± 2.8,,,,,
